Patent US20230173005A1 (ASIA UNIVERSITY, priority 2021, published 2023)

How the values were obtained:
COX-2 = assay: Western blotting of kidney, COX-2; assay type: in vivo, mouse
Experimental: (§1) Male ICR mice aged 7-8 weeks (each weighing about 30-32 grams) were divided into 6 groups, 10 mice per group, and the six groups correspond to a control group, an induction group, a positive control group and low-medium-high dose brown Flammulina velutipes water extract groups. The entire process was limited to 10 days. […] Both of the induction and the sacrifice were performed in a fasting state.
(§2) The administration was performed for 10 consecutive days while feeding at around 10 a.m. Normal food was provided during the above period. […] On the day before induction, all […] groups were treated on an empty stomach.
(§3) The kidneys were homogenized with a PBS solution and diluted 10 folds to form a homogeneous solution, and the homogeneous solution was centrifuged at 12,000 rpm at 4° C. for 20 minutes. The supernatant was taken to quantify each protein concentration, and treated to have a uniform concentration. A protein was added to a protein dye to form a sample, placed in a drying bath at 100° C., and heated for 5 minutes. Then, the sample was injected into 10%, 15% or 8% of colloid prepared with 40% of acrylamide/bisN,N-methylenbisacrylamide, in which the ratio of acrylamide to bisN,N-methylenbisacrylamide was 29:1. […]
(§4) After completion of the transfer, blocking was performed for 1 hour using milk. […] In addition, image data were acquired and analyzed by the Image J system.

[1] = system: glutathione peroxidase (GPX1); assay: Western blotting of kidney, GPX1; assay type: in vivo, mouse
Experimental: as §1, §2, §3, §4

p-NFκB = assay: Western blotting of kidney, p-NFκB; assay type: in vivo, mouse
Experimental: as §1, §2, §3, §4

iNOS = assay: Western blotting of kidney, iNOS; assay type: in vivo, mouse
Experimental: as §1, §2, §3, §4

[2] = system: mouse model of the acute renal failure induced by cisplatin; assay: Measurement on kidney weight/body weight ratio; assay type: in vivo; conditions: Amifostine 200 mg/kg i.p. 30 min after cisplatin 20 mg/Kg day 7
Experimental: as §1, §2
Kidneys were removed from the mouse body, and adrenal glands and surrounding fat were removed, washed with saline and then weighed immediately. The weights of the both kidneys were obtained and compared with the weight of the mouse measured on the last day, and the difference between the kidney/weight ratios of the mice was calculated.

BAX = assay: Western blotting of kidney, BAX; assay type: in vivo, mouse
Experimental: as §1, §2, §3, §4

catalase = assay type: in vivo, mouse; conditions: kidney; Amifostine 200 mg/Kg i.p. or WFV 1000 mg/kg oral in advance
Experimental: as §1, §2, §3, §4

[3] = system: mouse model of the acute renal failure induced by cisplatin; assay: Weight measurement in cisplatin-induced mice; assay type: in vivo; conditions: Amifostine 200 mg/kg i.p. 30 min after cisplatin 20 mg/Kg day 7
Experimental: as §1, §2

Bcl-2 = assay: Western blotting of kidney, Bcl-2; assay type: in vivo, mouse
Experimental: as §1, §2, §3, §4

TLR4 = assay: Western blotting of kidney, TLR4; assay type: in vivo, mouse
Experimental: as §1, §2, §3, §4

[4] = system: superoxide dismutase (SOD); assay: Western blotting of kidney, SOD; assay type: in vivo, mouse
Experimental: as §1, §2, §3, §4

Beclin-1 = assay: Western blotting of kidney, Beclin-1; assay type: in vivo, mouse; conditions: cisplatin 20 mg/Kg i.p. vs control group
Experimental: as §1, §2, §3, §4

IL-6 = assay: Cytokine analysis (ELISA), IL-6; assay type: in vivo, mouse; conditions: serum ELISA; cisplatin 20 mg/Kg i.p. vs control group
Experimental: as §1, §2
(§5) After sacrificing the mice to collect corresponding blood, and serum was separated and then diluted 10-fold or 5-fold. TNF-α, IL-6 and IL-1β were analyzed according to the multiple antibody sandwich principle by using BioLegend Company's ELISA kits.
(§6) In a 96-well microassay plate, 100 μL of capture antibody was added to each well, and placed at room temperature overnight. […] Finally, 2 equivalents of 100 μL of sulfuric acid as a stop solution was added, and the change in absorbance at a wavelength of 450 nm was measured with a microplate spectrometer. The concentration of cytokines in serum was additionally calculated.

Nrf2 = assay: Western blotting of kidney, Nrf2; assay type: in vivo, mouse; conditions: cisplatin 20 mg/Kg i.p. vs control group
Experimental: as §1, §2, §3, §4

TNF-α = assay: Cytokine analysis (ELISA), TNF-α; assay type: in vivo, mouse; conditions: serum ELISA; cisplatin 20 mg/Kg i.p. vs control group
Experimental: as §1, §2, §5, §6

AKT = assay: Western blotting of kidney, AKT; assay type: in vivo, mouse; conditions: cisplatin 20 mg/Kg i.p. vs control group
Experimental: as §1, §2, §3, §4

PI3K = assay: Western blotting of kidney, PI3K; assay type: in vivo, mouse; conditions: cisplatin 20 mg/Kg i.p. vs control group
Experimental: as §1, §2, §3, §4

p62 = assay: Western blotting of kidney, p62; assay type: in vivo, mouse; conditions: cisplatin 20 mg/Kg i.p. vs control group
Experimental: as §1, §2, §3, §4

LC3B = assay: Western blotting of kidney, LC3B; assay type: in vivo, mouse; conditions: cisplatin 20 mg/Kg i.p. vs control group
Experimental: as §1, §2, §3, §4

NO free radicals = assay: Nitrite analysis of mouse serum; assay type: in vivo; conditions: cisplatin 20 mg/Kg i.p.
Experimental: as §1, §2
Mouse serum was taken by 100 μL each and added to a new 96-well microassay plate. Then, Griess Reagent was added by the same amount of […]. The Griess reagent was obtained by mixing an aqueous solution of N-(1-naphthyl)ethylenediamine with a 1% sulfanilamide solution dissolved in 5% phosphoric acid in the volumetric ratio of 1:1. Thereafter, the absorbance was measured at a wavelength of 540 nm using a microplate spectrometer (Molecular Devices), so that the ability of removing NO free radicals was measured in each group.

IL-1β = assay: Cytokine analysis (ELISA), IL-1β; assay type: in vivo, mouse; conditions: serum ELISA; cisplatin 20 mg/Kg i.p. vs control group
Experimental: as §1, §2, §5, §6

HO-1 = assay: Western blotting of kidney, HO-1; assay type: in vivo, mouse; conditions: cisplatin 20 mg/Kg i.p. vs control group
Experimental: as §1, §2, §3, §4

[5] = Amifostine 200 mg/Kg i.p. or high-dose WFV (1000 mg/Kg oral) vs cisplatin induction group
[6] = Amifostine 200 mg/Kg i.p. or WFV 1000 mg/kg oral in advance
[7] = Amifostine 200 mg/Kg i.p. or high-dose WFV (1000 mg/Kg oral) vs induction group
[8] = cisplatin 20 mg/Kg i.p. vs control group

## NCCCNCCSP(=O)(O)O [Ami, Amifostine]
COX-2; [5]
  expression level of COX-2: decreased
[1]; [6]
  expression level of GPX1: not decreased
p-NFκB; [5]
  expression level of p-NFκB: decreased
iNOS; [5]
  expression level of iNOS: decreased
[2]
  Kidney weight: 0.55 ± 0.025 g
BAX; [7]
  expression level of apoptogenic protein BAX: significantly decreased
catalase
  expression level of catalase: not decreased
[3]
  Body weight After: 36.6 ± 0.18 g
Bcl-2; [7]
  expression level of Bcl-2: increased
TLR4; [5]
  expression level of TLR4: decreased
[4]; [6]
  expression level of SOD: not decreased

## N.N.[Cl][Pt][Cl] [Cis, cisplatin]
Beclin-1
  level of Beclin-1: significantly increased
IL-6
  concentration of IL-6: increased
COX-2; [8]
  expression level of COX-2: significant differences compared with the control group
[1]; [8]
  expression level of GPX1: decreased
p-NFκB; [8]
  expression level of p-NFκB: upward trend
Nrf2
  expression level of Nrf2: significantly increased
iNOS; [8]
  expression level of iNOS: significant differences compared with the control group
TNF-α
  concentration of TNF-α: increased
AKT
  expression level of AKT: significantly increased
BAX; [8]
  expression level of apoptogenic protein BAX: increased
PI3K
  expression level of PI3K: significantly increased
p62
  level of p62: significantly increased
Bcl-2; [8]
  expression level of Bcl-2: decreased
LC3B
  level of LC3B: significantly increased
NO free radicals
  expression level of NO free radicals (nitrite in serum): increased remarkably
TLR4; [8]
  expression level of TLR4: upward trend
IL-1β
  concentration of IL-1β: increased
[4]; [8]
  expression level of SOD: decreased
HO-1
  expression level of HO-1: significantly increased
